# From PubChem BioAssay AID1259407 (Chemical Carcinogenesis Research Information System (CCRIS), 2018)
# Calls of active or inactive are those of the source. No rule for the calls is given here.
# Tested on: CCRIS mutagenicity, Ames/micronucleus/aberration tests
# Assay: CCRIS mutagenicity studies
compound,measurement,setting,value
C=CC(=O)O,mutagenic call,"Test System: AMES SALMONELLA TYPHIMURIUM, Strain/Indicator: TA97, Metabolic Activation: NONE, Method: PREINCUBATION",inactive; negative
same,mutagenic call,"Test System: AMES SALMONELLA TYPHIMURIUM, Strain/Indicator: TA97, Metabolic Activation: S-9, Method: PREINCUBATION",inactive; negative
same,mutagenic call,"Test System: AMES SALMONELLA TYPHIMURIUM, Strain/Indicator: TA98, Metabolic Activation: HAMSTER, LIVER, S-9, AROCLOR 1254 (10%), Method: PREINCUBATION",inactive; negative
same,mutagenic call,"Test System: AMES SALMONELLA TYPHIMURIUM, Strain/Indicator: TA98, Metabolic Activation: HAMSTER, LIVER, S-9, AROCLOR 1254, Method: STANDARD PLATE",inactive; negative
same,mutagenic call,"Test System: AMES SALMONELLA TYPHIMURIUM, Strain/Indicator: TA98, Metabolic Activation: NONE, Method: PREINCUBATION",inactive; negative
same,mutagenic call,"Test System: AMES SALMONELLA TYPHIMURIUM, Strain/Indicator: TA98, Metabolic Activation: NONE, Method: STANDARD PLATE",inactive; negative
same,mutagenic call,"Test System: AMES SALMONELLA TYPHIMURIUM, Strain/Indicator: TA98, Metabolic Activation: RAT LIVER S-9, PHENOBARBITAL AND BETA-NAPHTHOFLAVONE, Method: PREINCUBATION",inactive; negative
same,mutagenic call,"Test System: AMES SALMONELLA TYPHIMURIUM, Strain/Indicator: TA98, Metabolic Activation: RAT, LIVER, S-9, AROCLOR 1254 (10%), Method: PREINCUBATION",inactive; negative
same,mutagenic call,"Test System: AMES SALMONELLA TYPHIMURIUM, Strain/Indicator: TA98, Metabolic Activation: RAT, LIVER, S-9, AROCLOR 1254, Method: STANDARD PLATE",inactive; negative
same,mutagenic call,"Test System: AMES SALMONELLA TYPHIMURIUM, Strain/Indicator: TA98, Metabolic Activation: RAT, LIVER, S-9, AROCLOR, Method: STANDARD PLATE",inactive; negative
same,mutagenic call,"Test System: AMES SALMONELLA TYPHIMURIUM, Strain/Indicator: TA100, Metabolic Activation: HAMSTER, LIVER, S-9, AROCLOR 1254 (10%), Method: PREINCUBATION",inactive; negative
same,mutagenic call,"Test System: AMES SALMONELLA TYPHIMURIUM, Strain/Indicator: TA100, Metabolic Activation: HAMSTER, LIVER, S-9, AROCLOR 1254, Method: STANDARD PLATE",inactive; negative
same,mutagenic call,"Test System: AMES SALMONELLA TYPHIMURIUM, Strain/Indicator: TA100, Metabolic Activation: NONE, Method: PREINCUBATION",inactive; negative
same,mutagenic call,"Test System: AMES SALMONELLA TYPHIMURIUM, Strain/Indicator: TA100, Metabolic Activation: NONE, Method: STANDARD PLATE",inactive; negative
same,mutagenic call,"Test System: AMES SALMONELLA TYPHIMURIUM, Strain/Indicator: TA100, Metabolic Activation: RAT LIVER S-9, PHENOBARBITAL AND BETA-NAPHTHOFLAVONE, Method: PREINCUBATION",inactive; negative
same,mutagenic call,"Test System: AMES SALMONELLA TYPHIMURIUM, Strain/Indicator: TA100, Metabolic Activation: RAT, LIVER, S-9, AROCLOR 1254 (10%), Method: PREINCUBATION",inactive; negative
same,mutagenic call,"Test System: AMES SALMONELLA TYPHIMURIUM, Strain/Indicator: TA100, Metabolic Activation: RAT, LIVER, S-9, AROCLOR 1254, Method: STANDARD PLATE",inactive; negative
same,mutagenic call,"Test System: AMES SALMONELLA TYPHIMURIUM, Strain/Indicator: TA100, Metabolic Activation: RAT, LIVER, S-9, AROCLOR, Method: STANDARD PLATE",inactive; negative
same,mutagenic call,"Test System: AMES SALMONELLA TYPHIMURIUM, Strain/Indicator: TA102, Metabolic Activation: NONE, Method: PREINCUBATION",inactive; negative
same,mutagenic call,"Test System: AMES SALMONELLA TYPHIMURIUM, Strain/Indicator: TA102, Metabolic Activation: RAT LIVER S-9, PHENOBARBITAL AND BETA-NAPHTHOFLAVONE, Method: PREINCUBATION",inactive; negative
same,mutagenic call,"Test System: AMES SALMONELLA TYPHIMURIUM, Strain/Indicator: TA102, Metabolic Activation: S-9, Method: PREINCUBATION",inactive; negative
same,mutagenic call,"Test System: AMES SALMONELLA TYPHIMURIUM, Strain/Indicator: TA104, Metabolic Activation: NONE, Method: PREINCUBATION",inactive; negative
same,mutagenic call,"Test System: AMES SALMONELLA TYPHIMURIUM, Strain/Indicator: TA104, Metabolic Activation: RAT LIVER S-9, PHENOBARBITAL AND BETA-NAPHTHOFLAVONE, Method: PREINCUBATION",inactive; negative
same,mutagenic call,"Test System: AMES SALMONELLA TYPHIMURIUM, Strain/Indicator: TA1535, Metabolic Activation: HAMSTER, LIVER, S-9, AROCLOR 1254 (10%), Method: PREINCUBATION",inactive; negative
same,mutagenic call,"Test System: AMES SALMONELLA TYPHIMURIUM, Strain/Indicator: TA1535, Metabolic Activation: HAMSTER, LIVER, S-9, AROCLOR 1254, Method: STANDARD PLATE",inactive; negative
same,mutagenic call,"Test System: AMES SALMONELLA TYPHIMURIUM, Strain/Indicator: TA1535, Metabolic Activation: NONE, Method: PREINCUBATION",inactive; negative
same,mutagenic call,"Test System: AMES SALMONELLA TYPHIMURIUM, Strain/Indicator: TA1535, Metabolic Activation: NONE, Method: STANDARD PLATE",inactive; negative
same,mutagenic call,"Test System: AMES SALMONELLA TYPHIMURIUM, Strain/Indicator: TA1535, Metabolic Activation: RAT LIVER S-9, PHENOBARBITAL AND BETA-NAPHTHOFLAVONE, Method: PREINCUBATION",inactive; negative
same,mutagenic call,"Test System: AMES SALMONELLA TYPHIMURIUM, Strain/Indicator: TA1535, Metabolic Activation: RAT, LIVER, S-9, AROCLOR 1254 (10%), Method: PREINCUBATION",inactive; negative
same,mutagenic call,"Test System: AMES SALMONELLA TYPHIMURIUM, Strain/Indicator: TA1535, Metabolic Activation: RAT, LIVER, S-9, AROCLOR 1254, Method: STANDARD PLATE",inactive; negative
same,mutagenic call,"Test System: AMES SALMONELLA TYPHIMURIUM, Strain/Indicator: TA1535, Metabolic Activation: RAT, LIVER, S-9, AROCLOR, Method: STANDARD PLATE",inactive; negative
same,mutagenic call,"Test System: AMES SALMONELLA TYPHIMURIUM, Strain/Indicator: TA1537, Metabolic Activation: HAMSTER, LIVER, S-9, AROCLOR 1254 (10%), Method: PREINCUBATION",inactive; negative
same,mutagenic call,"Test System: AMES SALMONELLA TYPHIMURIUM, Strain/Indicator: TA1537, Metabolic Activation: HAMSTER, LIVER, S-9, AROCLOR 1254, Method: STANDARD PLATE",inactive; negative
same,mutagenic call,"Test System: AMES SALMONELLA TYPHIMURIUM, Strain/Indicator: TA1537, Metabolic Activation: NONE, Method: PREINCUBATION",inactive; negative
same,mutagenic call,"Test System: AMES SALMONELLA TYPHIMURIUM, Strain/Indicator: TA1537, Metabolic Activation: NONE, Method: STANDARD PLATE",inactive; negative
same,mutagenic call,"Test System: AMES SALMONELLA TYPHIMURIUM, Strain/Indicator: TA1537, Metabolic Activation: RAT LIVER S-9, PHENOBARBITAL AND BETA-NAPHTHOFLAVONE, Method: PREINCUBATION",inactive; negative
same,mutagenic call,"Test System: AMES SALMONELLA TYPHIMURIUM, Strain/Indicator: TA1537, Metabolic Activation: RAT, LIVER, S-9, AROCLOR 1254 (10%), Method: PREINCUBATION",inactive; negative
same,mutagenic call,"Test System: AMES SALMONELLA TYPHIMURIUM, Strain/Indicator: TA1537, Metabolic Activation: RAT, LIVER, S-9, AROCLOR 1254, Method: STANDARD PLATE",inactive; negative
same,mutagenic call,"Test System: AMES SALMONELLA TYPHIMURIUM, Strain/Indicator: TA1537, Metabolic Activation: RAT, LIVER, S-9, AROCLOR, Method: STANDARD PLATE",inactive; negative
same,mutagenic call,"Test System: AMES SALMONELLA TYPHIMURIUM, Strain/Indicator: TA1538, Metabolic Activation: HAMSTER, LIVER, S-9, AROCLOR 1254, Method: STANDARD PLATE",inactive; negative
same,mutagenic call,"Test System: AMES SALMONELLA TYPHIMURIUM, Strain/Indicator: TA1538, Metabolic Activation: NONE, Method: STANDARD PLATE",inactive; negative
same,mutagenic call,"Test System: AMES SALMONELLA TYPHIMURIUM, Strain/Indicator: TA1538, Metabolic Activation: RAT, LIVER, S-9, AROCLOR 1254, Method: STANDARD PLATE",inactive; negative
same,mutagenic call,"Test System: AMES SALMONELLA TYPHIMURIUM, Strain/Indicator: TA1538, Metabolic Activation: RAT, LIVER, S-9, AROCLOR, Method: STANDARD PLATE",inactive; negative
same,mutagenic call,"Test System: CHINESE HAMSTER OVARY, Strain/Indicator: CHO-K1-BH4 (HGPRT), Metabolic Activation: NONE",inactive; negative
same,mutagenic call,"Test System: CHINESE HAMSTER OVARY, Strain/Indicator: CHO-K1-BH4 (HGPRT), Metabolic Activation: RAT, LIVER, S-9, AROCLOR 1254",inactive; negative
same,mutagenic call,"Test System: E.COLI, Strain/Indicator: WP2UVRA/PKM101, Metabolic Activation: NONE, Method: PREINCUBATION",inactive; negative
same,mutagenic call,"Test System: E.COLI, Strain/Indicator: WP2UVRA/PKM101, Metabolic Activation: RAT LIVER S-9, PHENOBARBITAL AND BETA-NAPHTHOFLAVONE, Method: PREINCUBATION",inactive; negative
same,mutagenic call,"Test System: E.COLI, Strain/Indicator: WP2UVRA, Metabolic Activation: NONE, Method: PREINCUBATION",inactive; negative
same,mutagenic call,"Test System: E.COLI, Strain/Indicator: WP2UVRA, Metabolic Activation: RAT LIVER S-9, PHENOBARBITAL AND BETA-NAPHTHOFLAVONE, Method: PREINCUBATION",inactive; negative
same,mutagenic call,"Test System: MOUSE LYMPHOMA, Strain/Indicator: L5178Y (TK+/TK-), Metabolic Activation: RAT, LIVER, S-9, AROCLOR 1254, Method: SUSPENSION /PLATE",active; positive
same,mutagenic call,"Test System: MOUSE LYMPHOMA, Strain/Indicator: L5178Y (TK+/TK-), Metabolic Activation: RAT, LIVER, S-9, AROCLOR 1254, Method: SUSPENSION/PLATE",active; positive. reevaluation of results: positive
same,mutagenic call,"Test System: MOUSE LYMPHOMA, Strain/Indicator: L5178Y (TK+/TK-), Metabolic Activation: RAT, LIVER, S-9, AROCLOR, Method: SUSPENSION/PLATE",inactive; negative
same,mutagenic call,"Test System: UDS RAT HEPATOCYTES, Strain/Indicator: THY INCORP, Metabolic Activation: NONE, Method: AUTORADIOGRAPHY",inactive; negative
same,mutagenic call,"Test System: UDS RODENT CELLS, Strain/Indicator: SHE CELL-MEDIATED, Metabolic Activation: NONE, Method: LIQUID SCINTILLATION COUNTING (THYMIDINE INCORPORATION)",inactive; negative
same,mutagenic call,"Test System: UDS RODENT HEPATOCYTES, Strain/Indicator: THY INCORP (NON-S-PHASE), Metabolic Activation: NONE, Method: AUTORADIOGRAPHY",inactive; negative
